This note sets out measurements from ChEMBL document CHEMBL1201862, “PubChem BioAssay data set” (2004).

Some test systems named below: MCF7; EKVX; DU-145; MDA-MB-435; SK-MEL-28; ACHN; SK-MEL-2; OVCAR-4; MOLT-4; SK-MEL-5; HCT-116; PC-3; 786-0; A498; NCI-H226; TK-10; CAKI-1; OVCAR-3; SK-OV-3; UACC-257.
Assay in all cases: DTP human tumour cell line panel, 48 h

Each structure is given as a SMILES string.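 Protocol summary: plate cells (96-well), add compound at 5 concentrations, incubate 48 h, interpolate endpoints linearly. GI50 = concentration required for 50% inhibition of growth.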 The source made the active and inactive calls. No stated cut-off is given here; in the data, active = GI50 up to about 1.1 µM and inactive = higher. A value given as a limit tells only on which side of the number the result lay.

On to `O=C1CCC(NC(=O)c2ccccc2)C(=O)N1` (stereo not given), for which the GI50 with MCF7, with EKVX, in the experiment with DU-145, with MDA-MB-435, in the experiment on SK-MEL-28 and with ACHN was > 100 µM (inactive) in each case. In addition, the GI50 was > 100 µM (inactive) in the experiment with SK-MEL-2; > 100 µM (inactive) in the experiment with OVCAR-4; 2.97 µM (inactive) in the experiment with MOLT-4; > 100 µM (inactive) in the experiment with SK-MEL-5; > 100 µM (inactive) in the experiment with HCT-116; > 100 µM (inactive) in the experiment with PC-3. The GI50 in the experiment with 786-0, with A498, in the experiment with NCI-H226, in the experiment on TK-10, in the experiment with CAKI-1 and with OVCAR-3 was > 100 µM (inactive) each time. The GI50 in the experiment on SK-OV-3 and in the experiment with UACC-257 was > 100 µM (inactive) each time.

For the molecule `CCc1nc2cc3cccnc3c(Cl)c2[nH]c1=O`, the GI50 in the experiment on MCF7 is 5.86 µM (inactive); in the experiment on EKVX it was > 100 µM (inactive); in the experiment with DU-145, > 100 µM (inactive); in the experiment with MDA-MB-435, > 100 µM (inactive); in the experiment on SK-MEL-28, > 100 µM (inactive); in the experiment with ACHN, 78.7 µM (inactive). For the same molecule, the GI50 in the experiment on SK-MEL-2, in the experiment on OVCAR-4, in the experiment with MOLT-4, in the experiment on SK-MEL-5, with HCT-116 and with PC-3 was > 100 µM (inactive) each time. Moreover, the GI50 with 786-0 was 79.8 µM (inactive); with A498, > 100 µM (inactive); in the experiment with NCI-H226, > 100 µM (inactive); in the experiment with TK-10 it was 89.5 µM (inactive); in the experiment on CAKI-1, 75.7 µM (inactive); in the experiment with OVCAR-3 it was > 100 µM (inactive). Besides, the GI50 in the experiment with SK-OV-3 is 95.9 µM (inactive); with UACC-257, > 100 µM (inactive).

On to `O=C1c2ccccc2CC12Cc1cc3c(cc1C2)CCC3`, for which the GI50 in the experiment with MCF7 is 34.5 µM (inactive); in the experiment on EKVX, 99.3 µM (inactive); in the experiment on DU-145, > 100 µM (inactive); in the experiment with MDA-MB-435, 34 µM (inactive); in the experiment on SK-MEL-28, 45.8 µM (inactive); in the experiment with ACHN, 43.3 µM (inactive). Further, the GI50 is 31.2 µM (inactive) with SK-MEL-2; > 100 µM (inactive) with OVCAR-4; 22.6 µM (inactive) in the experiment with MOLT-4; 20.5 µM (inactive) in the experiment on SK-MEL-5; 30.6 µM (inactive) in the experiment on HCT-116; 39.8 µM (inactive) in the experiment on PC-3. Besides, the GI50 was 94.4 µM (inactive) in the experiment with 786-0; 84.1 µM (inactive) in the experiment with A498; 15.9 µM (inactive) in the experiment on NCI-H226; > 100 µM (inactive) in the experiment with TK-10; > 100 µM (inactive) in the experiment with CAKI-1; 31.6 µM (inactive) in the experiment on OVCAR-3. The values for the GI50 in the experiment on SK-OV-3 and with UACC-257 were > 100 µM (inactive) and 31.9 µM (inactive), respectively.

For `COC(O)C(=O)c1c2c(cc3c1CCC3)CCCC2` (stereo not given), the GI50 in the experiment with MCF7 is 5.27 µM (inactive); with EKVX, 16.7 µM (inactive); in the experiment on DU-145, 14.1 µM (inactive); in the experiment with MDA-MB-435 it was 17.4 µM (inactive); in the experiment with SK-MEL-28 it was 9.48 µM (inactive); in the experiment on ACHN it was 8.38 µM (inactive). The GI50 with SK-MEL-2 is 11.4 µM (inactive); in the experiment on OVCAR-4, 7.31 µM (inactive); in the experiment on MOLT-4, 3.38 µM (inactive); in the experiment on SK-MEL-5 it was 4.47 µM (inactive); with HCT-116, 2.02 µM (inactive); in the experiment on PC-3, 4.32 µM (inactive). For the same molecule, the GI50 in the experiment with 786-0 was 14.1 µM (inactive); with A498 it was 13.5 µM (inactive); in the experiment with NCI-H226, 16.5 µM (inactive); with TK-10, 16.3 µM (inactive); in the experiment on CAKI-1, 14.7 µM (inactive); with OVCAR-3 it was 4.65 µM (inactive). For the same molecule, the GI50 is 12 µM (inactive) in the experiment with SK-OV-3 and 12.6 µM (inactive) in the experiment with UACC-257.

As for `COc1ccc2nc3c([N+](=O)[O-])ccc4c3c(c2c1)N=CN4CCCN(C)C`, the GI50 in the experiment with MCF7 is 0.733 µM (active); in the experiment on EKVX, 1.64 µM (inactive); in the experiment on DU-145, 2.52 µM (inactive); with MDA-MB-435, 2.54 µM (inactive); in the experiment with SK-MEL-28, 10 µM (inactive); in the experiment on ACHN, 0.743 µM (active). Further, the GI50 with SK-MEL-2 is 7.71 µM (inactive); with OVCAR-4 it was 1.65 µM (inactive); in the experiment on MOLT-4 it was 0.23 µM (active); with SK-MEL-5, 3.24 µM (inactive); in the experiment on HCT-116, 0.419 µM (active); in the experiment on PC-3, 1.21 µM (inactive). Further, the GI50 is 0.614 µM (active) in the experiment on 786-0; 5.6 µM (inactive) with A498; 7.18 µM (inactive) with NCI-H226; 1.45 µM (inactive) in the experiment on TK-10; 1.27 µM (inactive) in the experiment with CAKI-1; 2.91 µM (inactive) in the experiment with OVCAR-3. Further, the results for the GI50 with SK-OV-3 and in the experiment on UACC-257 were 4.4 µM (inactive) and 3.78 µM (inactive), respectively.

`Oc1cc(Cl)cc2cccnc12`: the GI50 in the experiment with MCF7 is 1.04 µM (active); in the experiment on EKVX, 0.804 µM (active); in the experiment on DU-145, 9.71 µM (inactive); with MDA-MB-435 it was 3.52 µM (inactive); in the experiment on SK-MEL-28 it was 19.3 µM (inactive); with ACHN it was 1.38 µM (inactive). The GI50 in the experiment with SK-MEL-2 was 5.92 µM (inactive); with OVCAR-4, 0.411 µM (active); in the experiment on MOLT-4 it was 0.465 µM (active); in the experiment on SK-MEL-5, 0.902 µM (active); with HCT-116, 1.43 µM (inactive); in the experiment with PC-3, 1.26 µM (inactive). In addition, the GI50 in the experiment on 786-0 was 8.71 µM (inactive); in the experiment on A498, 11.5 µM (inactive); with NCI-H226, 6.79 µM (inactive); in the experiment on TK-10, 57.5 µM (inactive); in the experiment with CAKI-1, 5 µM (inactive); in the experiment on OVCAR-3, 0.306 µM (active). Moreover, the GI50 in the experiment on SK-OV-3 is 43.7 µM (inactive); with UACC-257, 1.38 µM (inactive).

For `C=C1CC(C)(COc2ccc3ccc(=O)oc3c2)OC1=O` (stereo not given), the GI50 is 1.48 µM (inactive) in the experiment on MCF7; 7.53 µM (inactive) with EKVX; 3.22 µM (inactive) in the experiment with DU-145; 2.12 µM (inactive) with MDA-MB-435; 2.94 µM (inactive) with SK-MEL-28; 3.46 µM (inactive) in the experiment on ACHN. The GI50 with SK-MEL-2 is 1.31 µM (inactive); with OVCAR-4 it was 2.84 µM (inactive); in the experiment with MOLT-4 it was 1.18 µM (inactive); with SK-MEL-5, 2.34 µM (inactive); with HCT-116, 1.14 µM (inactive); with PC-3 it was 3.48 µM (inactive). Moreover, the GI50 with 786-0 was 1.42 µM (inactive); in the experiment with A498 it was 7.45 µM (inactive); in the experiment with NCI-H226, 11.4 µM (inactive); with TK-10, 1.58 µM (inactive); with CAKI-1 it was 2.03 µM (inactive); with OVCAR-3, 3.72 µM (inactive). In addition, the GI50 in the experiment with SK-OV-3 is 8.15 µM (inactive); with UACC-257, 0.671 µM (active).

With `CCOC(=O)Cn1nnc2cc(Nc3c(C)[n+]([O-])c4cc(F)c(OCC)cc4[n+]3[O-])ccc21`, the GI50 was > 100 µM (inactive) with MCF7; > 100 µM (inactive) with EKVX; > 100 µM (inactive) in the experiment with DU-145; > 100 µM (inactive) with MDA-MB-435; > 100 µM (inactive) with SK-MEL-28; 35.9 µM (inactive) with ACHN. For the same molecule, the GI50 in the experiment with SK-MEL-2 is 32.4 µM (inactive); in the experiment on OVCAR-4, > 100 µM (inactive); in the experiment on MOLT-4, 0.273 µM (active); in the experiment with SK-MEL-5, > 100 µM (inactive); with HCT-116, > 100 µM (inactive); in the experiment with PC-3, > 100 µM (inactive). In addition, the GI50 was 43.4 µM (inactive) in the experiment with 786-0; > 100 µM (inactive) in the experiment on A498; > 100 µM (inactive) with NCI-H226; 24.9 µM (inactive) with TK-10; > 100 µM (inactive) in the experiment with CAKI-1; > 100 µM (inactive) in the experiment on OVCAR-3. For the same molecule, the values for the GI50 in the experiment with SK-OV-3 and in the experiment on UACC-257 were 38.6 µM (inactive) and > 100 µM (inactive), respectively.

With `Cn1c(CO)ccc1-c1ccc(-c2ccc(CO)[se]2)[se]1`, the GI50 in the experiment with MCF7 was 0.251 µM (active); in the experiment on EKVX, 48.1 µM (inactive); in the experiment with DU-145, 12.9 µM (inactive); with MDA-MB-435, 3.08 µM (inactive); in the experiment with SK-MEL-28 it was 17 µM (inactive); in the experiment on ACHN, 19.3 µM (inactive). Besides, the GI50 in the experiment on SK-MEL-2 was 7.59 µM (inactive); in the experiment with OVCAR-4, 0.578 µM (active); in the experiment with MOLT-4 it was 3.76 µM (inactive); in the experiment with SK-MEL-5, 2.28 µM (inactive); with HCT-116, 0.859 µM (active); with PC-3, 18.2 µM (inactive). Also, the GI50 with 786-0 was 9.04 µM (inactive); with A498, 0.023 µM (active); with NCI-H226, 0.408 µM (active); in the experiment on TK-10 it was 0.0376 µM (active); with CAKI-1, 0.0176 µM (active); with OVCAR-3, 2.01 µM (inactive). The GI50 is > 50.4 µM (inactive) with SK-OV-3 and 0.192 µM (active) with UACC-257.

Regarding `CC(=O)/C=C/C1=C(C)CCCC1(C)CC(C)C` (stereo not given), the GI50 was 25.2 µM (inactive) in the experiment on MCF7; 39.7 µM (inactive) in the experiment on EKVX; 69.3 µM (inactive) with DU-145; 32.5 µM (inactive) with MDA-MB-435; 40.8 µM (inactive) in the experiment with SK-MEL-28; 22.1 µM (inactive) with ACHN. For the same molecule, the GI50 in the experiment with SK-MEL-2 was 19.6 µM (inactive); in the experiment on OVCAR-4 it was 63.8 µM (inactive); in the experiment with MOLT-4 it was 17.7 µM (inactive); in the experiment with SK-MEL-5 it was 16.9 µM (inactive); in the experiment with HCT-116, 25.5 µM (inactive); in the experiment on PC-3 it was 35 µM (inactive). The GI50 was 19 µM (inactive) in the experiment with 786-0; 24.2 µM (inactive) with A498; 33.5 µM (inactive) with NCI-H226; > 100 µM (inactive) in the experiment on TK-10; 42.8 µM (inactive) with CAKI-1; 26.5 µM (inactive) in the experiment with OVCAR-3. The GI50 is 55.5 µM (inactive) in the experiment on SK-OV-3 and 22.2 µM (inactive) in the experiment with UACC-257.

Usually GI50 stands for the concentration that inhibits growth by half.
